Experimental data from paper PMC7606179 (Acta Pharmaceutica Sinica. B, 2020).

Tested on: NA immobilized magnetic beads (NA from C. perfringens)
Type: binding, Clostridium perfringens

SMILES | Behaviour in NA-MB ligand fishing of the artificial mixture
COc1ccc2c3c1O[C@H]1C[C@@H](O)C=C[C@@]31CCN(C)C2 [galantamine] | non-inhibitor of NA
COc1cc2c(cc1O)CC[n+]1cc3c(OC)c(OC)ccc3cc1-2 [jatrorrhizine] | gradually washed out from M-S2 to M-S6
O=c1cc(-c2ccc(O)c(O)c2)oc2cc(O[C@@H]3O[C@H](CO)[C@@H](O)[C@H](O)[C@H]3O)cc(O)c12 [Galuteolin, galuteolin] | started to release from the enzyme when NA-MB was extracted using 50% organic solvent
O=c1cc(-c2ccc(O)c(O)c2)oc2cc(O)cc(O)c12 [luteolin] | specific inhibitors of NA
COc1cc(-c2oc3cc(O)cc(O)c3c(=O)c2O)ccc1O [isorhamnetin] | started to release from the enzyme when NA-MB was extracted using 50% organic solvent
O=c1c(O)c(-c2ccc(O)c(O)c2)oc2cc(O)cc(O)c12 [Quercetin] | specific inhibitors of NA
